According to patent publication US12521379B2, “Use of FK506 for the treatment of pulmonary arterial hypertension” (The Board of Trustees of the Leland Stanford Junior …, priority 2011, dated 2026):

Legend:
[1] = tested on: WBC count, nuclear NFATc2; assay: Immunosuppressive effect at low dose: WBC count and nuclear NFATc2; format: in vivo; details: low dose of 0.2 ng/ml
[2] = tested on: monocrotaline induced pulmonary hypertension; assay: Reversal of monocrotaline induced pulmonary hypertension in rats; format: in vivo, rat
Description: (§1) 3600 FDA approved drugs and bioactive compounds were screened for their ability to activate BMP signaling, using a C2C12 mouse myoblast cell line stably transfected with a reporter plasmid expressing a BMP response element (BRE) from the Id1 promoter fused to the luciferase-gene (BRE-luc). Whether the best qHTS-BMPRII activator can induce Smad phosphorylation (phospho), Id1 expression and promote PAEC survival and tube formation was determined using BMP4 as a positive control. Whether the qHTS-BMPRII-activator would prevent PAH in mice with a conditional deletion in BMPRII in ECs (BMPRII-SCL-CreERT) that develop exaggerated PAH after 3 weeks of hypoxia (10% O2) was determined. In order to assess whether the BMPRII activator could also reverse PAH, we used 2 models of severe experimental PH in rats: 1. Monocrotaline induced pulmonary hypertension with development of severe medial hypertrophy of the pulmonary arteries 3 weeks after injection. 2. SUGEN (VEGF-Receptor blocker) and 3-week chronic hypoxia induced pulmonary hypertension with development of neointima formation in pulmonary arteries 8 weeks after initiation of the stimulus. Both groups were treated with FK-506 for 3 weeks via sc osmotic pump (0.05 mg/kg/d) after PAH and remodeling of the pulmonary arteries was established. The serum level of FK-506 in mice and rats was aimed to be 0.2 ng/ml.

[3] = tested on: SUGEN and chronic hypoxia induced pulmonary hypertension; assay: Reversal of SUGEN and 3-week chronic hypoxia induced pulmonary hypertension in rats; format: in vivo, rat; details: n=4
Description: as §1

[4] = Prevention of PAH in mice with conditional deletion of BMPRII in ECs, 3 weeks of hypoxia; format: in vivo, mouse; details: mouse, serum, 0.05 mg/kg/day; mice, 0.05 mg/kg/d; read-out: serum levels
Description: as §1

[5] = tested on: mice with a conditional deletion in BMPRII in ECs (BMPRII-SCL-CreERT); assay: as above; format: in vivo, mouse; details: 0.05 mg/kg/d, 3-week preventive treatment, 3 weeks of hypoxia, n=5
Description: as §1

[6] = tested on: PAECs harvested from IPAH patients; assay: p-Smad 1/5/8 and Id1 expression in PAECs harvested from IPAH patients; format: cell-based, human; details: PAECs from six different IPAH patients at the time of transplant
Description: as §1

PAECs [7] = assay: PAEC survival; format: cell-based; details: n=5, p<0.001
Description: as §1

PAECs [8] = assay: Tube formation in an angiogenesis assay; format: cell-based; details: n=3, p<0.01
Description: as §1

[9] = 3-week sc treatment at established PAH

| Molecule | immunosuppressive effect of decreased nuclear NFATc2 [1] | total or differential WBC count [1] | survival ([2]; after 3-week treatment started 3 weeks after monocrotaline 60 mg s.c.) | RVSP ([2]; surviving rats after 3-week treatment, n=14) | RVH [3, 9] | RVSP [3, 9] | Neointima formation in small pulmonary arteries per total vessel number ([3]; alveolar wall and alveolar duct vessels) | concentration at 3 weeks [4] | RV systolic pressure [5] | RVH (right ventricular hypertrophy) [5] | Id1 expression [6] | p-Smad 1/5/8 [6] | survival of PAECs (PAECs [7]) | tube formation (PAECs [8]) |
| --- | --- | --- | --- | --- | --- | --- | --- | --- | --- | --- | --- | --- | --- | --- |
| C=CC[C@@H]1/C=C(\C)C[C@H](C)C[C@H](OC)[C@H]2O[C@@](O)(C(=O)C(=O)N3CCCC[C@H]3C(=O)O[C@H](/C(C)=C/[C@@H]3CC[C@@H](O)[C@H](OC)C3)[C@H](C)[C@@H](O)CC1=O)[C@H](C)C[C@@H]2OC [FK-506] | nor was an immunosuppressive effect of decreased nuclear NFATc2 measured | no effect | 57% | 39.5±4.7 mmHg | 0.34±0.02 | 39.5±0.6 mmHg | 16.2±5.8% | 0.2 ng/mL | 21±2.3 mmHg | 26.9±4.5 | – | – | – | – |
| BMP4: bone morphogenetic protein 4, used as a positive control (protein, UniProt P12644 293-408, looked up) Bone morphogenetic protein 4: SPKHHSQRARKKNKNCRRHSLYVDFSDVGWNDWIVAPPGYQAFYCHGDCPFPLADHLNSTNHAIVQTLVNSVNSSIPKACCVPTELSAISMLYLDEYDKVVLKNYQEMVVEGCGCR | – | – | – | – | – | – | – | – | – | – | 3/6 patients that did not respond | 3/6 patients that did not respond | improved survival | induced tube formation |
